# Laboratory results from PubChem BioAssay (NCI).
#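 Protocol summary: plate cells (96-well), add compound at 5 concentrations, incubate 48 h, interpolate endpoints linearly. TGI: concentration producing complete growth inhibition.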
# Experiments:
# Assay in all cases: growth of human tumour cells (NCI), 48 h
# [1] = test system: 786-0 renal
# [2] = test system: A498 renal
# [3] = test system: A549 NSCLC
# [4] = test system: ACHN renal
# [5] = test system: CAKI-1 renal
# [6] = test system: CCRF-CEM leukemia
# [7] = test system: COLO 205 colon
# [8] = test system: DU-145 prostate
# [9] = test system: EKVX NSCLC
# [10] = test system: HCC-2998 colon
# [11] = test system: HCT-116 colon
# [12] = test system: HCT-15 colon
# [13] = test system: HL-60(TB) leukemia
# [14] = test system: HOP-62 NSCLC
# [15] = test system: HOP-92 NSCLC
# [16] = test system: HS 578T breast
# [17] = test system: HT29 colon
# [18] = test system: IGROV1 ovarian
# [19] = test system: K-562 leukemia
# [20] = test system: KM12 colon
# [21] = test system: LOX IMVI melanoma
# [22] = test system: M14 melanoma
# [23] = test system: MALME-3M melanoma
# [24] = test system: MCF7 breast
# [25] = test system: MDA-MB-231 breast
# [26] = test system: MDA-MB-435
# [27] = test system: MDA-N
# [28] = test system: MOLT-4 leukemia
# [29] = test system: NCI-H226 lung
# [30] = test system: NCI-H23 lung
# [31] = test system: NCI-H460 lung
# [32] = test system: NCI-H522 lung
# [33] = test system: NCI/ADR-RES ovarian
# [34] = test system: OVCAR-3 ovarian
# [35] = test system: OVCAR-4 ovarian
# [36] = test system: OVCAR-5 ovarian
# [37] = test system: OVCAR-8 ovarian
# [38] = test system: PC-3 prostate
# [39] = test system: RPMI-8226 leukemia
# [40] = test system: RXF 393 renal
# [41] = test system: SF-268 CNS
# [42] = test system: SF-295 CNS
# [43] = test system: SF-539 CNS
# [44] = test system: SK-MEL-2 melanoma
# [45] = test system: SK-MEL-28 melanoma
# [46] = test system: SK-MEL-5 melanoma
# [47] = test system: SK-OV-3 ovarian
# [48] = test system: SN12C renal
# [49] = test system: SNB-19 CNS
# [50] = test system: SNB-75 CNS
# [51] = test system: SW-620 colon
# [52] = test system: T-47D breast
# [53] = test system: TK-10 renal
# [54] = test system: U251 CNS
# [55] = test system: UACC-257 melanoma
# [56] = test system: UACC-62 melanoma
# [57] = test system: UO-31 renal
# [58] = test system: SR leukemia
# [59] = test system: BT-549 breast
structure (smiles),measurement,setting,value
Cc1c2c(c(C)c3c[n+](C)ccc13)Oc1ccccc1O2,TGI,[1],> 100 µM
same,TGI,[2],> 100 µM
same,TGI,[3],> 100 µM
same,TGI,[4],> 100 µM
same,TGI,[5],> 100 µM
same,TGI,[6],37.6 µM
same,TGI,[7],> 52.9 µM
same,TGI,[8],> 100 µM
same,TGI,[9],> 100 µM
same,TGI,[10],19.8 µM
same,TGI,[11],> 67.9 µM
same,TGI,[12],> 100 µM
same,TGI,[13],39.4 µM
same,TGI,[14],33.4 µM
same,TGI,[15],99.8 µM
same,TGI,[16],12.9 µM
same,TGI,[17],68.2 µM
same,TGI,[18],50 µM
same,TGI,[19],35.4 µM
same,TGI,[20],6.42 µM
same,TGI,[21],> 71.1 µM
same,TGI,[22],> 59.7 µM
same,TGI,[23],19.1 µM
same,TGI,[24],> 63 µM
same,TGI,[25],> 69.8 µM
same,TGI,[26],34.1 µM
same,TGI,[27],53.5 µM
same,TGI,[28],23.8 µM
same,TGI,[29],> 43.8 µM
same,TGI,[30],40.4 µM
same,TGI,[31],16.4 µM
same,TGI,[32],17.1 µM
same,TGI,[33],> 100 µM
same,TGI,[34],17.5 µM
same,TGI,[35],28.2 µM
same,TGI,[36],> 31.6 µM
same,TGI,[37],> 54 µM
same,TGI,[38],> 76.7 µM
same,TGI,[39],12.7 µM
same,TGI,[40],> 100 µM
same,TGI,[41],11.8 µM
same,TGI,[42],> 80.4 µM
same,TGI,[43],22.4 µM
same,TGI,[44],41.2 µM
same,TGI,[45],28.6 µM
same,TGI,[46],42.5 µM
same,TGI,[47],> 84.5 µM
same,TGI,[48],> 42.4 µM
same,TGI,[49],12.7 µM
same,TGI,[50],17.5 µM
same,TGI,[51],> 52.8 µM
same,TGI,[52],25.7 µM
same,TGI,[53],> 100 µM
same,TGI,[54],22.3 µM
same,TGI,[55],25.9 µM
same,TGI,[56],27.4 µM
same,TGI,[57],> 100 µM
COc1cc(Cn2c3c(c4c(CN(C)C)c(O)ccc42)C(=O)c2ccccc2C3=O)cc(OC)c1,TGI,[1],27.6 µM
same,TGI,[2],22.4 µM
same,TGI,[3],35.1 µM
same,TGI,[4],29.6 µM
same,TGI,[5],30.4 µM
same,TGI,[6],52.4 µM
same,TGI,[7],85.3 µM
same,TGI,[8],> 100 µM
same,TGI,[9],40.4 µM
same,TGI,[10],34.5 µM
same,TGI,[11],31.1 µM
same,TGI,[12],28.2 µM
same,TGI,[13],> 100 µM
same,TGI,[14],30.9 µM
same,TGI,[16],43.9 µM
same,TGI,[17],> 100 µM
same,TGI,[19],36.8 µM
same,TGI,[20],> 100 µM
same,TGI,[21],40.6 µM
same,TGI,[22],32.6 µM
same,TGI,[23],76.2 µM
same,TGI,[24],29.4 µM
same,TGI,[25],40.7 µM
same,TGI,[26],37 µM
same,TGI,[27],31.6 µM
same,TGI,[28],88.9 µM
same,TGI,[29],> 100 µM
same,TGI,[30],29.1 µM
same,TGI,[31],32.3 µM
same,TGI,[33],34.8 µM
same,TGI,[34],90.5 µM
same,TGI,[35],26.9 µM
same,TGI,[36],42.5 µM
same,TGI,[37],28.3 µM
same,TGI,[38],35.4 µM
same,TGI,[39],41.5 µM
same,TGI,[41],27.9 µM
same,TGI,[42],44 µM
same,TGI,[43],29.8 µM
same,TGI,[44],29.8 µM
same,TGI,[45],29.2 µM
same,TGI,[46],26 µM
same,TGI,[47],48.3 µM
same,TGI,[48],55.1 µM
same,TGI,[49],36.9 µM
same,TGI,[50],8.07 µM
same,TGI,[58],36.5 µM
same,TGI,[51],38.5 µM
same,TGI,[52],> 100 µM
same,TGI,[53],74.2 µM
same,TGI,[54],36.8 µM
same,TGI,[55],55.7 µM
same,TGI,[56],51.9 µM
same,TGI,[57],27.7 µM
CC1=CC(c2ccccc2)OP1(=O)c1ccccc1 (centres undefined),TGI,[1],> 100 µM
same,TGI,[2],> 100 µM
same,TGI,[3],> 100 µM
same,TGI,[4],> 100 µM
same,TGI,[5],> 100 µM
same,TGI,[7],> 100 µM
same,TGI,[8],> 100 µM
same,TGI,[9],> 100 µM
same,TGI,[10],> 100 µM
same,TGI,[11],> 100 µM
same,TGI,[12],> 100 µM
same,TGI,[13],> 100 µM
same,TGI,[14],> 100 µM
same,TGI,[15],> 100 µM
same,TGI,[16],> 100 µM
same,TGI,[17],> 100 µM
same,TGI,[18],> 100 µM
same,TGI,[19],> 100 µM
same,TGI,[20],> 100 µM
same,TGI,[21],> 100 µM
same,TGI,[22],> 100 µM
same,TGI,[23],> 100 µM
same,TGI,[24],> 100 µM
same,TGI,[26],> 100 µM
same,TGI,[27],> 100 µM
same,TGI,[29],> 100 µM
same,TGI,[30],> 100 µM
same,TGI,[31],> 100 µM
same,TGI,[32],> 100 µM
same,TGI,[33],> 100 µM
same,TGI,[34],> 100 µM
same,TGI,[35],> 100 µM
same,TGI,[36],> 100 µM
same,TGI,[37],> 100 µM
same,TGI,[38],> 100 µM
same,TGI,[41],> 100 µM
same,TGI,[42],> 100 µM
same,TGI,[43],> 100 µM
same,TGI,[44],> 100 µM
same,TGI,[45],> 100 µM
same,TGI,[46],> 100 µM
same,TGI,[47],> 100 µM
same,TGI,[48],> 100 µM
same,TGI,[49],> 100 µM
same,TGI,[50],> 100 µM
same,TGI,[58],> 100 µM
same,TGI,[51],> 100 µM
same,TGI,[52],> 100 µM
same,TGI,[53],> 100 µM
same,TGI,[54],> 100 µM
same,TGI,[55],> 100 µM
same,TGI,[56],> 100 µM
CN(CCCNC(=O)c1cn(C)c2c1ccc1cc(Cl)ccc12)CCCNC(=O)c1cn(C)c2c1ccc1cc(Cl)ccc12,TGI,[2],43.6 µM
same,TGI,[4],3.47 µM
same,TGI,[59],30.9 µM
same,TGI,[5],9.14 µM
same,TGI,[7],2.85 µM
same,TGI,[8],3.79 µM
same,TGI,[9],> 100 µM
same,TGI,[12],2.89 µM
same,TGI,[15],19.3 µM
same,TGI,[17],3.19 µM
same,TGI,[19],> 100 µM
same,TGI,[22],3.75 µM
same,TGI,[23],7.05 µM
same,TGI,[26],3.23 µM
same,TGI,[27],5.6 µM
same,TGI,[29],> 100 µM
same,TGI,[30],> 100 µM
same,TGI,[31],> 100 µM
same,TGI,[35],> 27.2 µM
same,TGI,[36],18.3 µM
same,TGI,[38],2.97 µM
same,TGI,[41],3.25 µM
same,TGI,[43],3.88 µM
same,TGI,[45],3.31 µM
same,TGI,[46],20 µM
same,TGI,[48],3.35 µM
same,TGI,[49],> 100 µM
same,TGI,[58],16.3 µM
same,TGI,[53],> 100 µM
same,TGI,[55],> 100 µM
same,TGI,[56],3.76 µM
